Data from patent US11384381B2, “Reaction accelerating agent” (Kikkoman Corporation, priority 2016, dated 2022).

Test system: fructosyl amino acid oxidase (FAOD-E)
Test: Acceleration of fructosyl valine detection reaction with small amount of fructosyl amino acid oxidase (Example 9)
Format: biochemical
Conditions: 0.04% (w/v) compound, 2.14 U/ml FAOD-E; for effect of accelerating fructosyl valine detection reaction: versus not added; for Degree of progression of reaction (%) after 7.5 minutes / Degree of progression of reaction (%) after 10 minutes: fructosyl valine detection reaction, ΔA/ΔA100%; for Degree of progression of reaction (%) after 7.5 minutes: 2.5 minutes after addition of second reagent, not added: 29; for Degree of progression of reaction (%) after 10 minutes: 5 minutes after addition of second reagent, not added: 48
Experimental: Next, in this Example, the degree of acceleration of fructosyl valine detection reaction by the compound of the present invention was determined using a small amount of fructosyl amino acid oxidase.
A reagent for fructosyl valine measurement having the following composition was prepared, and the measurement of fructosyl valine was carried out using Bio Majesty JCA-BM1650 (manufactured by JEOL Ltd.).
32 μM fructosyl valine (manufactured by Kikkoman Biochemifa Company)
30 mM MOPS-NaOH buffer solution, pH 8.0
0.2% (v/v) NYMEEN F-215 (manufactured by NOF Corp.)
10 U/ml peroxidase PEO-301 (Toyobo Co., Ltd.)
0.023 mM 10-(carboxymethylaminocarbonyl)-3,7-bis(dimethylamino)phenothiazine sodium (DA-67, manufactured by Wako Pure Chemical Industries, Ltd.)
0.04% (w/v) of the compound of Comparative Example 2, any one compound of the present invention, or compound-free (Comparative Example 1) ion-exchange water as shown in Table 1
10 mM MOPS-NaOH buffer solution, pH 8.0
2.14 U/ml FAOD-E (manufactured by Kikkoman Biochemifa Company)
8 μl of the sample was added to 96 μl of the first reagent-C, and the mixture was incubated at 37° C. for 5 minutes. Then, 24 μl of the second reagent-F was added thereto, and the quantitative reaction of hydrogen peroxide resulting from the oxidation of fructosyl valine was allowed to progress at 37° C. for 5 minutes. The absorbance (A694 and A751) of the reaction solution for light at wavelengths of 694 nm and 751 nm was measured over time for 10 minutes after the mixing of the sample with the first reagent-C to determine the value of subtraction of A751 from A694, i.e., the value A694/751. Subsequently, ΔA was calculated by subtracting, from A694/751, the value of (104/128) times A694/751 4.8 minutes after the mixing of the sample with the first reagent-C. Incidentally, 5 minutes after the mixing of the sample with the first reagent-C represents the time immediately before the addition of the second reagent-F.
Next, ΔA calculated in this Example was divided by ΔA100% defined in Example 8 to calculate the degree of progression of fructosyl valine detection reaction. The degree of progression of fructosyl valine detection reaction 7.5 and 10 minutes after the mixing of the sample with the first reagent-C (in other words, 2.5 and 5 minutes after the addition of the second reagent-F) is shown in Table 6.

| SMILES | effect of accelerating fructosyl valine detection reaction | Degree of progression of reaction (%) after 7.5 minutes [%] | Degree of progression of reaction (%) after 10 minutes [%] |
| --- | --- | --- | --- |
| O=C([O-])c1cc(N=Nc2cccc([N+](=O)[O-])c2)ccc1O.[Na+] [Alizarin Yellow GG] | effect of accelerating fructosyl valine detection reaction | 38 | 62 |
| O=C(O)c1cc(N=Nc2ccc3cc(S(=O)(=O)O)ccc3c2)ccc1O.[Na] [Chrome Yellow] | effect of accelerating fructosyl valine detection reaction | 43 | 68 |
| COc1cc(N=Nc2ccc(N)cc2)c(C)cc1N [Disperse Diazo Black 3BF] | effect of accelerating fructosyl valine detection reaction | 86 | 89 |
| O=C([O-])c1cc(N=Nc2ccc([N+](=O)[O-])cc2)ccc1O.[Na+] [Mordant Orange 1] | effect of accelerating fructosyl valine detection reaction | 37 | 59 |
